target: T1, Mineralocorticoid receptor (Homo sapiens, UniProt P08235); experiment: Antagonist activity at human mineralocorticoid receptor assessed as inhibition of binding to coactivator peptide by NH Pro assay
T1 sequence (P08235 whole entry): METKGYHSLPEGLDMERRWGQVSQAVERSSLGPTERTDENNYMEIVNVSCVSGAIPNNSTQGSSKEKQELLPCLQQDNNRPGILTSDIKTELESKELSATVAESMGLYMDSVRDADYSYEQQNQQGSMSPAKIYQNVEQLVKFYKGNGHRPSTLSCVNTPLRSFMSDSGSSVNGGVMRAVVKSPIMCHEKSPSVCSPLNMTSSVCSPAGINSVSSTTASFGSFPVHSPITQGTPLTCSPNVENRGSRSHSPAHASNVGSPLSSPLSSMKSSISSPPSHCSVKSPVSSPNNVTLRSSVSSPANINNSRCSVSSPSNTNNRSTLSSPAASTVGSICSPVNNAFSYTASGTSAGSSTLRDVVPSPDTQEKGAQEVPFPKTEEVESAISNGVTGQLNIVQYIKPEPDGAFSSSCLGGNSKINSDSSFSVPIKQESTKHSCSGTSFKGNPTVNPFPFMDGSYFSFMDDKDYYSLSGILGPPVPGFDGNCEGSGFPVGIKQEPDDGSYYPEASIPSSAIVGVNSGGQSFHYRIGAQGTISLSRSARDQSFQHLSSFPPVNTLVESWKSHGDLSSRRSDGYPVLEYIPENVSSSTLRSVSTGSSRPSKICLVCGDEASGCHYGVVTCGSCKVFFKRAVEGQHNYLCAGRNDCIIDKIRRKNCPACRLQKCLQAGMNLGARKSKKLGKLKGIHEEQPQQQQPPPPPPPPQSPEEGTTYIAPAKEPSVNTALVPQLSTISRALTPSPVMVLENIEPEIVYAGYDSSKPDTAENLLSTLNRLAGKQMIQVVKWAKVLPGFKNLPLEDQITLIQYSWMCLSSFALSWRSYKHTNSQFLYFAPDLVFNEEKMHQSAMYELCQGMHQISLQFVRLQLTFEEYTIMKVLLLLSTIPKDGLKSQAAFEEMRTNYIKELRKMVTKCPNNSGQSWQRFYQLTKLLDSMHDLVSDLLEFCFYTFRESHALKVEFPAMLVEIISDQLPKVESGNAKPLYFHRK

Structure (SMILES)	IC50 [nM]
COc1cc(CNC(=O)[C@@]2(Cc3ccc(Cl)cc3)OC(=O)N([C@H](C)c3ccccc3)C2=O)cc(OC)c1	> 40000
COc1cc(CNC(=O)[C@@]2(Cc3cccc(Cl)c3)OC(=O)N([C@H](C)c3ccccc3)C2=O)cc(OC)c1	750
COc1cc(CNC(=O)[C@@]2(Cc3ccc4ccccc4c3)OC(=O)N([C@H](C)c3ccccc3)C2=O)cc(OC)c1	> 40000
COc1cc(CNC(=O)[C@@]2(Cc3ccc4nonc4c3)OC(=O)N([C@H](C)c3ccccc3)C2=O)cc(OC)c1	> 40000
COc1cc(CNC(=O)[C@@]2(Cc3cccc4nonc34)OC(=O)N([C@H](C)c3ccccc3)C2=O)cc(OC)c1	> 40000
COc1cc(CNC(=O)[C@@]2(Cc3ccccc3)OC(=O)N(C3CCN(C(=O)C(F)(F)F)CC3)C2=O)cc(OC)c1	2900
COc1cc(CNC(=O)[C@@]2(Cc3ccccc3)NC(=O)N(Cc3ccccc3)C2=O)cc(OC)c1	> 40000
COc1cc(CNC(=O)[C@]2(Cc3ccccc3)C(=O)N(Cc3ccccc3)C(=O)N2C)cc(OC)c1	> 40000
COc1cc(CNC(=O)C2(Cc3ccccc3)CN(Cc3ccccc3)C(=O)N2)cc(OC)c1 (stereo not given)	> 40000
COc1cc(CNC(=O)C2(Cc3ccccc3)CCN(Cc3ccccc3)C2)cc(OC)c1 (stereo not given)	> 40000
COc1cc(CNC(=O)C2(Cc3ccccc3)CC(=O)N([C@H](C)c3ccccc3)C2=O)cc(OC)c1 (stereo not given in full)	> 40000
COc1cc(CNC(=O)C2(Cc3ccccc3)CCN([C@H](C)c3ccccc3)C2=O)cc(OC)c1 (stereo not given in full)	> 10000
COc1cc(CNC(=O)C2(Cc3ccccc3)CN(Cc3ccccc3)C(=O)O2)cc(OC)c1 (stereo not given)	> 40000
C[C@H](c1ccccc1)N1C(=O)N[C@](Cc2ccccc2)(C(=O)N2CCc3ccccc3C2)C1=O	990
COc1cccc(CNC(=O)[C@@]2(Cc3ccccc3)OC(=O)N(Cc3ccccc3)C2=O)c1	1000
COc1ccc(CNC(=O)[C@@]2(Cc3ccccc3)OC(=O)N([C@H](C)c3ccccc3)C2=O)cc1	1000
COc1cc(CNC(=O)[C@@]2(Cc3ccccc3)OC(=O)N(Cc3ccccc3)C2=O)cc(OC)c1	3000
C[C@H](NC(=O)[C@@]1(Cc2ccccc2)OC(=O)N([C@H](C)c2ccccc2)C1=O)c1cccc(Cl)c1	2600
C[C@H](c1ccccc1)N1C(=O)O[C@](Cc2ccccc2)(C(=O)NCc2ccc(C(F)(F)F)cc2)C1=O	570
C[C@H](c1ccccc1)N1C(=O)O[C@](Cc2ccccc2)(C(=O)NCc2ccc(S(C)(=O)=O)cc2)C1=O	> 10000
C[C@H](c1ccccc1)N1C(=O)O[C@](Cc2ccccc2)(C(=O)NCc2cccc(S(C)(=O)=O)c2)C1=O	3000
C[C@H](c1ccccc1)N1C(=O)O[C@](Cc2ccccc2)(C(=O)Nc2ccc3ccccc3c2)C1=O	600

Structure (SMILES)	IC50 [nM]
C[C@H](c1ccccc1)N1C(=O)O[C@](Cc2ccccc2)(C(=O)Nc2cccc(Cl)c2)C1=O	2000
C[C@H](c1ccccc1)N1C(=O)O[C@](Cc2ccccc2)(C(=O)Nc2ccccc2Cl)C1=O	1000
C[C@H](c1ccccc1)N1C(=O)O[C@](Cc2ccccc2)(C(=O)NC2CCCCC2)C1=O	4000
C[C@H](c1ccccc1)N1C(=O)O[C@](Cc2ccccc2)(C(=O)NC2CCC2)C1=O	1200
C[C@H](c1ccccc1)N1C(=O)O[C@](Cc2ccccc2)(C(=O)NC2CC2)C1=O	2000
C[C@H](c1ccccc1)N1C(=O)O[C@](Cc2ccccc2)(C(=O)N[C@H]2C[C@@H](c3ccccc3)C2)C1=O	650
Cc1cc(CNC(=O)[C@@]2(Cc3ccccc3)OC(=O)N([C@H](C)c3ccccc3)C2=O)on1	3000
CCn1cc(CNC(=O)[C@@]2(Cc3ccccc3)OC(=O)N([C@H](C)c3ccccc3)C2=O)cn1	> 10000
C[C@H](c1ccccc1)N1C(=O)O[C@](Cc2ccccc2)(C(=O)NCc2ccncc2)C1=O	> 40000
C[C@H](c1ccccc1)N1C(=O)O[C@](Cc2ccccc2)(C(=O)NCc2cccnc2)C1=O	13000
C[C@H](c1ccccc1)N1C(=O)O[C@](Cc2ccccc2)(C(=O)NCc2ccccn2)C1=O	16000
O=C1O[C@](Cc2ccccc2)(C(=O)NCc2nccs2)C(=O)N1Cc1ccccc1	> 40000
C[C@H](c1ccccc1)N1C(=O)O[C@](Cc2ccccc2)(C(=O)NCc2ccc3ccccc3n2)C1=O	2500
C[C@H](c1ccccc1)N1C(=O)O[C@](Cc2ccccc2)(C(=O)NCc2ccc3cnccc3c2)C1=O	1500
C[C@H](c1ccccc1)N1C(=O)O[C@](Cc2ccccc2)(C(=O)NCc2cccc3cnccc23)C1=O	3000
C[C@H](c1ccccc1)N1C(=O)O[C@](Cc2ccccc2)(C(=O)NCCc2ccncc2)C1=O	4000
C[C@H](c1ccccc1)N1C(=O)O[C@](Cc2ccccc2)(C(=O)NCCc2ccccn2)C1=O	15000
C[C@H](c1ccccc1)N1C(=O)O[C@](Cc2ccccc2)(C(=O)NCCc2nnc[nH]2)C1=O	> 40000
C[C@H](c1ccccc1)N1C(=O)O[C@](Cc2ccccc2)(C(=O)NCCc2cn[nH]c2)C1=O	> 40000
COc1cc(CNC(=O)[C@H]2OC(=O)N(Cc3ccccc3)C2=O)cc(OC)c1	> 40000
COc1cc(CNC(=O)[C@@]2(Cc3ccncc3)OC(=O)N(Cc3ccccc3)C2=O)cc(OC)c1	30000
COc1cc(CNC(=O)[C@@]2(Cc3ccccn3)OC(=O)N([C@H](C)c3ccccc3)C2=O)cc(OC)c1	3000

Molecules with a lower IC50, results first:

IC50 [nM]	Structure (SMILES)
450	COc1cc(CNC(=O)[C@@]2(Cc3ccccc3Cl)OC(=O)N([C@H](C)c3ccccc3)C2=O)cc(OC)c1
500	COc1cc(CNC(=O)[C@@]2(Cc3ccccc3)OC(=O)N(C(C)C)C2=O)cc(OC)c1
500	COc1cc(CNC(=O)[C@@]2(Cc3ccccc3)OC(=O)N([C@@H](C)c3ccccc3)C2=O)cc(OC)c1
37	COc1cc(CNC(=O)[C@@]2(Cc3ccccc3)OC(=O)N([C@H](C)c3ccc(F)cc3)C2=O)cc(OC)c1
55	COc1cc(CNC(=O)[C@@]2(Cc3ccccc3)OC(=O)N([C@H](C)c3ccc(Cl)cc3)C2=O)cc(OC)c1
14	COc1cc(CNC(=O)[C@@]2(Cc3ccccc3)OC(=O)N([C@H](C)C3CCCCC3)C2=O)cc(OC)c1
170	COc1cc(CNC(=O)[C@@]2(Cc3ccccc3)OC(=O)N(C3CCCc4ccccc43)C2=O)cc(OC)c1 (stereo not given in full)
400	CC[C@H](c1ccccc1)N1C(=O)O[C@](Cc2ccccc2)(C(=O)NCc2cc(OC)cc(OC)c2)C1=O
340	C[C@H](c1ccccc1)N1C(=O)O[C@](Cc2ccccc2)(C(=O)N2CCc3ccccc3C2)C1=O
300	COc1cccc(CNC(=O)[C@@]2(Cc3ccccc3)OC(=O)N([C@H](C)c3ccccc3)C2=O)c1
500	COc1ccccc1CNC(=O)[C@@]1(Cc2ccccc2)OC(=O)N([C@H](C)c2ccccc2)C1=O
200	C[C@H](c1ccccc1)N1C(=O)O[C@](Cc2ccccc2)(C(=O)NCc2ccc(Cl)cc2)C1=O
280	C[C@H](c1ccccc1)N1C(=O)O[C@](Cc2ccccc2)(C(=O)NCc2cccc(Cl)c2)C1=O
400	C[C@H](c1ccccc1)N1C(=O)O[C@](Cc2ccccc2)(C(=O)N[C@H](C)c2cccc(Cl)c2)C1=O
500	C[C@H](c1ccccc1)N1C(=O)O[C@](Cc2ccccc2)(C(=O)NCc2cccc(C(F)(F)F)c2)C1=O
270	C[C@H](c1ccc(F)cc1)N1C(=O)O[C@](Cc2ccccc2)(C(=O)Nc2ccccc2)C1=O
180	C[C@H](c1ccc(F)cc1)N1C(=O)O[C@](Cc2ccccc2)(C(=O)Nc2ccc(Cl)cc2)C1=O
100	C[C@H](c1ccccc1)N1C(=O)O[C@](Cc2ccccc2)(C(=O)Nc2ccc(F)cc2)C1=O
300	C[C@H](c1ccccc1)N1C(=O)O[C@](Cc2ccccc2)(C(=O)Nc2cccc(F)c2)C1=O
100	C[C@H](c1ccccc1)N1C(=O)O[C@](Cc2ccccc2)(C(=O)Nc2ccc(C#N)cc2)C1=O
190	C[C@H](c1ccccc1)N1C(=O)O[C@](Cc2ccccc2)(C(=O)N[C@H]2C[C@H](c3ccccc3)C2)C1=O
250	C[C@H](c1ccccc1)N1C(=O)O[C@](Cc2ccccc2)(C(=O)N[C@@H]2C[C@H]2c2ccccc2)C1=O
300	C[C@H](c1ccccc1)N1C(=O)O[C@](Cc2ccccc2)(C(=O)NCc2cccc3ccnn23)C1=O
200	COc1cc(CNC(=O)[C@@]2(Cc3ccc(F)cc3)OC(=O)N([C@H](C)c3ccccc3)C2=O)cc(OC)c1
280	COc1cc(CNC(=O)[C@@]2(Cc3cccc(F)c3)OC(=O)N([C@H](C)c3ccccc3)C2=O)cc(OC)c1
300	COc1cc(CNC(=O)[C@@]2(Cc3ccccc3F)OC(=O)N([C@H](C)c3ccccc3)C2=O)cc(OC)c1

— ChEMBL document CHEMBL2407028, “Discovery of novel oxazolidinedione derivatives as potent and selective mineralocorticoid receptor antagonists” (Bioorg Med Chem Lett, 2013)
